Columns and labels:
[1] = molecular target: Bruton’s tyrosine kinase (BTK) (Homo sapiens, UniProt Q06187); assay: ELISA kinase activity assay with purchased BTK protein (MilliporeSigma #[…]-552); format: biochemical
[2] = molecular target: T1, interleukin-2-inducible T cell kinase (ITK) (Homo sapiens, UniProt Q08881); assay: ELISA kinase activity assay with purchased ITK protein (MilliporeSigma #[…]-660); format: biochemical
T1 sequence (Q08881 1-620): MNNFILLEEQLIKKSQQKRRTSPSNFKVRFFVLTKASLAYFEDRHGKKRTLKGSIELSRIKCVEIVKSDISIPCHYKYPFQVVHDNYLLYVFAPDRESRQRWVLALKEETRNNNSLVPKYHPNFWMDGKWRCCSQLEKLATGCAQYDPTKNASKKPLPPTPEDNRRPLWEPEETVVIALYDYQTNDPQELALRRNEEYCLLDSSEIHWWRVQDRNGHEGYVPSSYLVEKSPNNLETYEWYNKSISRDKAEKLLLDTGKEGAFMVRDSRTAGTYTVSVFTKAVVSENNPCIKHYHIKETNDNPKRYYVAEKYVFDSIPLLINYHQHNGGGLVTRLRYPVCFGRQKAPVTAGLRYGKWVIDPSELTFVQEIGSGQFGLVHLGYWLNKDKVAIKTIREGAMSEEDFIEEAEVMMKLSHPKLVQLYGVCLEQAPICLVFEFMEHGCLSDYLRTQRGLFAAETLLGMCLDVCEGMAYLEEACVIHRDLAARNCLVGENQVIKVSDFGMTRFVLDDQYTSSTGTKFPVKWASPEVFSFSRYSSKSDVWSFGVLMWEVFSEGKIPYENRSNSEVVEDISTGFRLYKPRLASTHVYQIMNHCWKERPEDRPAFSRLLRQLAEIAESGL

Chain of Bruton’s tyrosine kinase (BTK) (Q06187 2-659): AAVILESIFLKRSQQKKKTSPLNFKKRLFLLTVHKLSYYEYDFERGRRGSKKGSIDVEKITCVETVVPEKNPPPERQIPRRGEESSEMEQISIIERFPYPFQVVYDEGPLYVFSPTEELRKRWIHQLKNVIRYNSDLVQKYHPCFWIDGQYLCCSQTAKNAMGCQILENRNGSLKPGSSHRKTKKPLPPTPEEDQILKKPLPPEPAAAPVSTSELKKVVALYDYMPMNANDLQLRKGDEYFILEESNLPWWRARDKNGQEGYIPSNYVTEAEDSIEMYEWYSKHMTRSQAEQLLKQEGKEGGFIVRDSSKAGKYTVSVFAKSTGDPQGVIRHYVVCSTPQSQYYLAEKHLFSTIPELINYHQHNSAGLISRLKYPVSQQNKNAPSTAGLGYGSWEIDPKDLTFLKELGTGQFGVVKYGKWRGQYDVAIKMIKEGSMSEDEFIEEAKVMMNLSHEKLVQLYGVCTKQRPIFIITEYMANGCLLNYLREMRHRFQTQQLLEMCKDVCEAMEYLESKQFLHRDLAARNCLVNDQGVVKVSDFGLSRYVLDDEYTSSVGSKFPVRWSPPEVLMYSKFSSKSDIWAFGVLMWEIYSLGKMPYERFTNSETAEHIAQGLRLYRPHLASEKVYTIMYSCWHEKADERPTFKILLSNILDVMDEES

C=CC(=O)Nc1cc(Nc2ncc(Cl)c(Nc3ccc4ccccc4c3)n2)c(OC)cc1N(C)CCN(C)C [ASK120067]
IC50 [1]: 2.1 nM | IC50 [2]: 0.4 nM
